Laboratory results taken from PubChem BioAssay (NCI).
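In this assay, cells in 96-well plates receive the compound at five concentrations for 48 hours. Endpoints are linearly interpolated between the surrounding concentrations. Definition used: TGI = concentration required for complete inhibition of growth.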

Experiments:
Experiment in all cases: inhibition of tumour cell growth, NCI panel, 48 h
SR leukemia = tested on: SR leukemia
EKVX NSCLC = tested on: EKVX NSCLC
HOP-62 NSCLC = tested on: HOP-62 NSCLC
NCI-H226 lung = tested on: NCI-H226 lung
MOLT-4 leukemia = tested on: MOLT-4 leukemia
UACC-257 melanoma = tested on: UACC-257 melanoma
IGROV1 ovarian = tested on: IGROV1 ovarian
K-562 leukemia = tested on: K-562 leukemia
TK-10 renal = tested on: TK-10 renal
ACHN renal = tested on: ACHN renal
SK-MEL-2 melanoma = tested on: SK-MEL-2 melanoma
HCT-15 colon = tested on: HCT-15 colon
RXF 393 renal = tested on: RXF 393 renal
HCT-116 colon = tested on: HCT-116 colon
MDA-MB-435 = tested on: MDA-MB-435
SNB-75 CNS = tested on: SNB-75 CNS
PC-3 prostate = tested on: PC-3 prostate
MCF7 breast = tested on: MCF7 breast
OVCAR-4 ovarian = tested on: OVCAR-4 ovarian
LOX IMVI melanoma = tested on: LOX IMVI melanoma
U251 CNS = tested on: U251 CNS
HT29 colon = tested on: HT29 colon
SK-OV-3 ovarian = tested on: SK-OV-3 ovarian
M14 melanoma = tested on: M14 melanoma
CCRF-CEM leukemia = tested on: CCRF-CEM leukemia
UACC-62 melanoma = tested on: UACC-62 melanoma
SK-MEL-5 melanoma = tested on: SK-MEL-5 melanoma
786-0 renal = tested on: 786-0 renal
SN12C renal = tested on: SN12C renal
KM12 colon = tested on: KM12 colon
NCI/ADR-RES ovarian = tested on: NCI/ADR-RES ovarian
SK-MEL-28 melanoma = tested on: SK-MEL-28 melanoma
MDA-N = tested on: MDA-N
HCC-2998 colon = tested on: HCC-2998 colon
OVCAR-5 ovarian = tested on: OVCAR-5 ovarian
SF-268 CNS = tested on: SF-268 CNS
UO-31 renal = tested on: UO-31 renal
HL-60(TB) leukemia = tested on: HL-60(TB) leukemia
T-47D breast = tested on: T-47D breast
OVCAR-8 ovarian = tested on: OVCAR-8 ovarian
CAKI-1 renal = tested on: CAKI-1 renal
COLO 205 colon = tested on: COLO 205 colon
MDA-MB-231 breast = tested on: MDA-MB-231 breast
HS 578T breast = tested on: HS 578T breast
DU-145 prostate = tested on: DU-145 prostate
A549 NSCLC = tested on: A549 NSCLC
BT-549 breast = tested on: BT-549 breast
RPMI-8226 leukemia = tested on: RPMI-8226 leukemia
SNB-19 CNS = tested on: SNB-19 CNS
NCI-H23 lung = tested on: NCI-H23 lung
SW-620 colon = tested on: SW-620 colon
SF-295 CNS = tested on: SF-295 CNS
OVCAR-3 ovarian = tested on: OVCAR-3 ovarian
MALME-3M melanoma = tested on: MALME-3M melanoma
NCI-H460 lung = tested on: NCI-H460 lung
SF-539 CNS = tested on: SF-539 CNS
NCI-H522 lung = tested on: NCI-H522 lung
HOP-92 NSCLC = tested on: HOP-92 NSCLC

O=C(c1ccccc1)n1[nH]c(=O)n(-c2ccc(Cl)cc2)c1=O
TGI (SR leukemia): > 100 µM | TGI (EKVX NSCLC): > 100 µM | TGI (HOP-62 NSCLC): > 100 µM | TGI (NCI-H226 lung): > 100 µM | TGI (MOLT-4 leukemia): > 100 µM | TGI (UACC-257 melanoma): > 100 µM | TGI (IGROV1 ovarian): > 100 µM | TGI (K-562 leukemia): > 100 µM | TGI (TK-10 renal): > 100 µM | TGI (ACHN renal): > 100 µM | TGI (SK-MEL-2 melanoma): > 100 µM | TGI (HCT-15 colon): > 100 µM | TGI (RXF 393 renal): > 100 µM | TGI (HCT-116 colon): > 100 µM | TGI (MDA-MB-435): > 100 µM | TGI (SNB-75 CNS): > 100 µM | TGI (PC-3 prostate): > 100 µM | TGI (MCF7 breast): > 100 µM | TGI (OVCAR-4 ovarian): > 100 µM | TGI (LOX IMVI melanoma): > 100 µM | TGI (U251 CNS): > 100 µM | TGI (HT29 colon): > 100 µM | TGI (SK-OV-3 ovarian): > 100 µM | TGI (M14 melanoma): > 100 µM | TGI (CCRF-CEM leukemia): > 100 µM | TGI (UACC-62 melanoma): > 100 µM | TGI (SK-MEL-5 melanoma): > 100 µM | TGI (786-0 renal): > 100 µM | TGI (SN12C renal): > 100 µM | TGI (KM12 colon): > 100 µM | TGI (NCI/ADR-RES ovarian): > 100 µM | TGI (SK-MEL-28 melanoma): > 100 µM | TGI (MDA-N): > 100 µM | TGI (HCC-2998 colon): > 100 µM | TGI (OVCAR-5 ovarian): > 100 µM | TGI (SF-268 CNS): > 100 µM | TGI (UO-31 renal): > 100 µM | TGI (HL-60(TB) leukemia): > 100 µM | TGI (T-47D breast): > 100 µM | TGI (OVCAR-8 ovarian): > 100 µM | TGI (CAKI-1 renal): > 100 µM | TGI (COLO 205 colon): > 100 µM | TGI (MDA-MB-231 breast): > 100 µM | TGI (HS 578T breast): > 100 µM | TGI (DU-145 prostate): > 100 µM | TGI (A549 NSCLC): > 100 µM | TGI (BT-549 breast): > 100 µM | TGI (RPMI-8226 leukemia): > 100 µM | TGI (SNB-19 CNS): 83.3 µM | TGI (NCI-H23 lung): > 100 µM | TGI (SW-620 colon): > 100 µM | TGI (SF-295 CNS): > 100 µM | TGI (OVCAR-3 ovarian): > 100 µM | TGI (MALME-3M melanoma): > 100 µM | TGI (NCI-H460 lung): > 100 µM

CC(=O)N1C(OCc2ccccc2)CCN1c1ccccc1 (configuration not stated)
TGI (SF-539 CNS): > 10 µM | TGI (NCI-H522 lung): > 10 µM | TGI (SR leukemia): > 10 µM | TGI (HOP-62 NSCLC): > 10 µM | TGI (NCI-H226 lung): > 10 µM | TGI (MOLT-4 leukemia): > 10 µM | TGI (UACC-257 melanoma): > 10 µM | TGI (IGROV1 ovarian): > 10 µM | TGI (K-562 leukemia): > 10 µM | TGI (TK-10 renal): > 10 µM | TGI (ACHN renal): > 10 µM | TGI (SK-MEL-2 melanoma): > 10 µM | TGI (HCT-15 colon): > 10 µM | TGI (HOP-92 NSCLC): > 10 µM | TGI (RXF 393 renal): > 10 µM | TGI (HCT-116 colon): > 10 µM | TGI (MDA-MB-435): > 10 µM | TGI (SNB-75 CNS): > 10 µM | TGI (PC-3 prostate): > 10 µM | TGI (OVCAR-4 ovarian): > 10 µM | TGI (LOX IMVI melanoma): > 10 µM | TGI (HT29 colon): > 10 µM | TGI (SK-OV-3 ovarian): > 10 µM | TGI (M14 melanoma): > 10 µM | TGI (CCRF-CEM leukemia): > 10 µM | TGI (SK-MEL-5 melanoma): > 10 µM | TGI (786-0 renal): > 10 µM | TGI (SN12C renal): > 10 µM | TGI (NCI/ADR-RES ovarian): > 10 µM | TGI (SK-MEL-28 melanoma): > 10 µM | TGI (MDA-N): > 10 µM | TGI (OVCAR-5 ovarian): > 10 µM | TGI (SF-268 CNS): > 10 µM | TGI (UO-31 renal): > 10 µM | TGI (HL-60(TB) leukemia): > 10 µM | TGI (T-47D breast): > 10 µM | TGI (OVCAR-8 ovarian): > 10 µM | TGI (CAKI-1 renal): > 10 µM | TGI (COLO 205 colon): > 10 µM | TGI (MDA-MB-231 breast): > 10 µM | TGI (HS 578T breast): > 10 µM | TGI (DU-145 prostate): > 10 µM | TGI (A549 NSCLC): > 10 µM | TGI (BT-549 breast): > 10 µM | TGI (RPMI-8226 leukemia): > 10 µM | TGI (SNB-19 CNS): > 10 µM | TGI (NCI-H23 lung): > 10 µM | TGI (SW-620 colon): > 10 µM | TGI (SF-295 CNS): > 10 µM | TGI (OVCAR-3 ovarian): > 10 µM | TGI (MALME-3M melanoma): > 10 µM | TGI (NCI-H460 lung): > 10 µM
